Laboratory results: ChEMBL document CHEMBL1201862, “PubChem BioAssay data set” (2004)
Calls of active or inactive are those of the source.

Assays:
Insulin-degrading enzyme [1] = molecular target: T1, Insulin-degrading enzyme (Homo sapiens, UniProt P14735); experiment: activators of recombinant IDE enzyme, dose response, counter-screen for IDE activator project, biochemical, fluorescence polarization (AID 588681)
T1 sequence (P14735 whole entry): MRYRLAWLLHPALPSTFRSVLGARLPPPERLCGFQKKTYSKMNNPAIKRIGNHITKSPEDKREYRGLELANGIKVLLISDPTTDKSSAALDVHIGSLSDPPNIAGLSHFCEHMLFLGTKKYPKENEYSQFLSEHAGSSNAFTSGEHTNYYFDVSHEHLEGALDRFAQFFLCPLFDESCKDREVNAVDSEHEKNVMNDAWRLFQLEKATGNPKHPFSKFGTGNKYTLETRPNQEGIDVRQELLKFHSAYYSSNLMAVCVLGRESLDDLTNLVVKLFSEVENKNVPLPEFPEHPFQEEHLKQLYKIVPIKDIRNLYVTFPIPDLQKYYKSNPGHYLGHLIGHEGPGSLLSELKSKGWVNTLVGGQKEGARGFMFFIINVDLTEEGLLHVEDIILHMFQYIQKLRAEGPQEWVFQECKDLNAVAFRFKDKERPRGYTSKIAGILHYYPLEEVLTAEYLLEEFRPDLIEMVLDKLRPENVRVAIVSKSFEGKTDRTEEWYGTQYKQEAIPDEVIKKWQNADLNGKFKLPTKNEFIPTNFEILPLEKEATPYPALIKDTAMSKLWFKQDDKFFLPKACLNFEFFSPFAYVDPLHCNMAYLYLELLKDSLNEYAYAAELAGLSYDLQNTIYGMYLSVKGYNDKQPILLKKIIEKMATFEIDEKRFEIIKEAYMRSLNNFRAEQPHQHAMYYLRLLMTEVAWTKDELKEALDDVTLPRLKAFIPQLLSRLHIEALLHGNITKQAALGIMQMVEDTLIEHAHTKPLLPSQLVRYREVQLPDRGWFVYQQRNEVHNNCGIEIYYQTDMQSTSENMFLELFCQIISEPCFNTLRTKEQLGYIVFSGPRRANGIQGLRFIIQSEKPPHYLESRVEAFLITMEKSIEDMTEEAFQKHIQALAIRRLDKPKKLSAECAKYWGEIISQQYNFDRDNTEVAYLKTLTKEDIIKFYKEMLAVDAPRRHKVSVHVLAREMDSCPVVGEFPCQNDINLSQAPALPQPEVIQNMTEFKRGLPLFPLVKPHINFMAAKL

HEK293 [2] = experiment: optical interference in Abeta FP readout, dose response, artefact control for IDE activator project, biochemical, fluorescence polarization (AID 588442); type: functional, cell-based; details: Homo sapiens
Insulin-degrading enzyme [3] = molecular target: T1, Insulin-degrading enzyme; experiment: activators of endogenous IDE in HEK cells, dose response, cell-based, fluorescence polarization (AID 588439); type: functional
HEK293 [4] = experiment: HEK cell cytotoxicity by LDH release, dose response, cytotoxicity control for IDE activator project, fluorescence, HEK cells (AID 588440); type: functional, cell-based; details: Homo sapiens;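 note: cytotoxicity by LDH release measuring loss of membrane integrity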
Caspase-7 = Caspase-7 (Homo sapiens, UniProt P55210); experiment: human caspase-7 inhibitors, dose response, selectivity assay for caspase-6 inhibitor project, biochemical, DEVD-R110 fluorescence, cherry-pick (AID 743295)
Caspase-8 = Caspase-8 (Homo sapiens, UniProt Q14790); experiment: caspase-8 inhibition counter-screen, dose response, selectivity assay for caspase-6 inhibitor project, biochemical, Z-IETD-R110 fluorescence, cherry-picked samples (AID 743294)
[5] = molecular target: T2, Carboxy-terminal domain RNA polymerase II polypeptide A small phosphatase 1 (Homo sapiens, UniProt Q9GZU7); experiment: inhibitors of CTDSP1, concentration-response testing, biochemical assay, absorbance-based, actives from ultra-high-throughput screening (AID 540297); type: functional
T2 sequence (Q9GZU7 whole entry): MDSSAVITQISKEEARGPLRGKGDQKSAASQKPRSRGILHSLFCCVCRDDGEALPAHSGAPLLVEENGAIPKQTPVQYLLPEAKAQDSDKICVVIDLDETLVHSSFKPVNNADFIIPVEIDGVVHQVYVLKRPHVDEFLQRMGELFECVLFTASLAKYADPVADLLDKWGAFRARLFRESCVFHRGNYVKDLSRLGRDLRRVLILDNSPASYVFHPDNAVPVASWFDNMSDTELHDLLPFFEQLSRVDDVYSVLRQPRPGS

Caspase-6 = molecular target: T3, Caspase-6 (Homo sapiens, UniProt P55212); experiment: human caspase-6 inhibitors, dose response, biochemical, VEID-R110 fluorescence, cherry-pick (AID 720632)
T3 sequence (P55212 whole entry): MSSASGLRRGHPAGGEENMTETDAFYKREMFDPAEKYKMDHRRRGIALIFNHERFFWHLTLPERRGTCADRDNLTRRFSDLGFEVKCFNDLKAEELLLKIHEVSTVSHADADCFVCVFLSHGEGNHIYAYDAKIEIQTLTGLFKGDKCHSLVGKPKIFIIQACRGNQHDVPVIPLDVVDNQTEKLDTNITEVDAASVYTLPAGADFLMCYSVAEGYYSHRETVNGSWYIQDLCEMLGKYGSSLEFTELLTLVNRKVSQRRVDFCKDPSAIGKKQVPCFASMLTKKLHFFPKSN

[6] = molecular target: Beta-adrenergic receptor kinase 1 (Homo sapiens, UniProt P25098); experiment: aptamer displacement from bead-bound GRK2 – biochemical, cherry pick 1, bead flow cytometry, dose response (AID 504500)
Chain of Beta-adrenergic receptor kinase 1 (P25098 whole entry): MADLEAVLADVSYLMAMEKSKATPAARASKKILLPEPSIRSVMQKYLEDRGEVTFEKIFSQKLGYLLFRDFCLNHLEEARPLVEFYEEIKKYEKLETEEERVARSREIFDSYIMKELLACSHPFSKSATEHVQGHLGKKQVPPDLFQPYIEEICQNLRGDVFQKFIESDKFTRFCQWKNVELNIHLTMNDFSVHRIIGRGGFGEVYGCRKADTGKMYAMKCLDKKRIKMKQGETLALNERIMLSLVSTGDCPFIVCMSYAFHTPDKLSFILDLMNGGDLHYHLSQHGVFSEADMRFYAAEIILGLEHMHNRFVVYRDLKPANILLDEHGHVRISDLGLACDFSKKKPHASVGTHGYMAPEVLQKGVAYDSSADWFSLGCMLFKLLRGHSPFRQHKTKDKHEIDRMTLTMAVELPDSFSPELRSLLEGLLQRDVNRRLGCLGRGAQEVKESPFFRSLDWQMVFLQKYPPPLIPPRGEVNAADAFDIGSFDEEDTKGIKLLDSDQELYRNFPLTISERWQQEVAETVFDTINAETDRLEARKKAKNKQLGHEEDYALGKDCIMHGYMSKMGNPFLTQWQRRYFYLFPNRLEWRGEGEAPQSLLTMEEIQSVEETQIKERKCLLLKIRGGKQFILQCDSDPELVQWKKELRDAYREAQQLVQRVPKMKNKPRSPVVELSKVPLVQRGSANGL

Chain of Caspase-8 (Q14790 217-374 limits assumed): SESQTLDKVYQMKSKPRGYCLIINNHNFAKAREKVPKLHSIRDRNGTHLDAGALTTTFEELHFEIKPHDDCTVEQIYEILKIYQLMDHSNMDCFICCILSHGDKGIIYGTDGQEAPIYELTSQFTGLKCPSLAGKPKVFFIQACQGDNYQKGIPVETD
Chain of Caspase-8 (Q14790 385-479 limits assumed): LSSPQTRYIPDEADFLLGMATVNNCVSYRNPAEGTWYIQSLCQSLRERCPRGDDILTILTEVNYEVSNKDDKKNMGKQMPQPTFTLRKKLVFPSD
Chain of Caspase-7 (P55210 24-198 limits assumed): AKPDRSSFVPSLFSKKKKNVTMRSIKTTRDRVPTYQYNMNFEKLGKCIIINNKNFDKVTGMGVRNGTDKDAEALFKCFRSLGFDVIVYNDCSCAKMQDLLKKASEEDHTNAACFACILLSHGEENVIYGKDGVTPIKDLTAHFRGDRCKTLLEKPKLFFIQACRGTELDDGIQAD
Chain of Caspase-7 (P55210 207-303 limits assumed): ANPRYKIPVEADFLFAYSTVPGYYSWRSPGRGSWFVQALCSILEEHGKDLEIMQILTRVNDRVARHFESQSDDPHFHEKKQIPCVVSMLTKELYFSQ

## CCN(CC(=O)Nc1ccc(NC(C)=O)cc1)C(=O)c1cc(CN2C(=O)c3ccccc3C2=O)ccc1OC
Insulin-degrading enzyme [1]
  EC50: > 54.7 µM (inactive)
HEK293 [2]
  EC50: > 54.7 µM (inactive)
Insulin-degrading enzyme [3]
  EC50: > 54.7 µM (inactive)
HEK293 [4]
  IC50: > 89.2 µM (inactive)

## CCCN(C(=O)c1cccc(-n2cccc2)c1)c1c(N)n(Cc2ccccc2)c(=O)[nH]c1=O
Caspase-7
  AC50: > 70 µM (inactive)
Caspase-8
  AC50: 58.8 µM (active)
[5]
  IC50: 6.44 µM (active)
Caspase-6
  AC50: 3.75 µM (active)
[6]
  EC50: 0.72 µM (active)
